According to US12370255B2, “Peptide-based vaccines, methods of manufacturing, and uses thereof for inducing an immune response” (Barinthus Biotherapeutics North America, Inc., priority 2017, dated 2025):
Entries after “also recorded” stand apart in the source; their conditions may differ. *1 amine or outer side, *2 acyl side, *3 side chain or, on linkers, in order; H or OH if unused. Where a SMILES comes first, the peptide text is derived from it. Where no end group is shown, it is not given here. Side-chain parts run from the residue outwards. The star is where a group is joined. 2B = 1-(4-aminobutyl)-2-butyl-1H-imidazo[4,5-c]quinolin-4-amine, CCCCc1nc2c(N)nc3ccccc3c2n1CCCCN*; X2 = CCCCNc1nc(N)c2nc(O)n(Cc3ccc(C(=O)NCC(=O)NCCCn4nnc5c4-c4ccccc4N(*)Cc4ccccc4-5)cc3)c2n1; X1 = C1=C\c2ccccc2N(*)Cc2ccccc2/1; Suc = O=C(CCC(=O)[*:2])[*:1]

What was measured:
T cells = assay: T cell responses in vivo induced by peptide antigen conjugates; details: immunogenic compositions of peptide antigen conjugates
Description: FIG. 37 discloses SEQ ID NOS 580-585, respectively, in order of appearance.
FIG. 38 discloses SEQ ID NOS 586-602, respectively, in order of appearance.
FIG. 39 discloses SEQ ID NOS 603-605 and 605, respectively, in order of appearance.
FIG. 40 discloses SEQ ID NOS 606-610, respectively, in order of appearance.
FIG. 41 discloses SEQ ID NOS 603-605, 103 and 611, respectively, in order of appearance.
FIG. 42 discloses SEQ ID NO: 104.
FIG. 45 discloses SEQ ID NOS 619, 620, 619, 621, 180 and 622, respectively, in order of appearance.

CD8 T cells = assay: antigen-specific CD8 T cell responses (% IFNg+ of total CD8 T cells) from whole blood of immunized mice; format: in vivo; details: native LP neoantigen admixed with pICLC; immunized days 0 and 14, day 28
Description: Mice (N=5 per group) were immunized with different immunogenic compositions comprising peptide antigens (A) based on either the synthetic long peptide (LP, sometimes referred to as “SLP”) or the minimal CD8 T cell epitope (Min, sometimes referred to as ME) of the antigen Irgq derived from the MC38 tumor cell line either as the peptide antigen (A) alone admixed with the TLR-7/8a adjuvant; as the peptide antigen (A) linked to a hydrophobic molecule (H), W3, and admixed with the TLR-7/8a adjuvant; or as the peptide antigen (A) linked to a hydrophobic molecule (H) co-delivering a TLR-7/8a adjuvant, 2BXy3. Mice were immunized at days 0 and 14 and antigen-specific CD8 T cell responses (% IFNg+ of total CD8 T cells) were assessed from whole blood at days 0 and 25. Open circles indicate that the peptide antigen (A) was soluble (i.e. non-particulate), whereas closed circles indicate that the mice received a particulate immunogenic composition of the peptide antigen (A).
Mice (N=5 per group) were immunized with different immunogenic compositions comprising peptide antigens (A) based on either the synthetic long peptide (LP) or minimal CD8 T cell epitope (Min) of the antigen Cpne1 derived from the MC38 tumor cell line either as the peptide antigen (A) alone admixed with the TLR-7/8a adjuvant; as the peptide antigen (A) linked to a hydrophobic molecule (H), W3, and admixed with the TLR-7/8a adjuvant; or as the peptide antigen (A) linked to a hydrophobic molecule (H) co-delivering a TLR-7/8a adjuvant, 2BXy3. Mice were immunized at days 0 and 14 and antigen-specific CD8 T cell responses (% IFNg+ of total CD8 T cells) were assessed from whole blood at days 0 and 25. […]
Mice (N=5 per group) were immunized with immunogenic compositions comprising 4 unique peptide antigen conjugates delivering a distinct MC38 tumor derived minimal CD8 T cell epitopes (40 total epitopes) that were linked to either 2BXy5 or 2B5 hydrophobic molecules (H). Mice were immunized at days 0 and 14 and antigen-specific CD8 T cell responses (% IFNg+ of total CD8 T cells) were assessed from whole blood at day 24.

[1] = hydrodynamic behavior: water solubility, particle size by dynamic light scattering and turbidity in PBS pH 7.4; format: physicochemical; details: aqueous buffer at pH about 7.4
Description: FIG. 4: Molecular weight and hydrodynamic behavior of peptide antigens (A) and peptide antigen conjugates delivering peptide antigens (A) comprised of either synthetic long peptides (SLP or “LP”) or minimal (“Min”) CD8 T cell epitopes derived from the MC38 tumor cell line. […] FIG. 4 discloses SEQ ID NOS 190-199, 623 and 200, respectively, in order of appearance. FIG. 18: Impact of peptide antigen conjugate net charge and hydrophobic molecule composition on hydrodynamic behavior. The hydrodynamic behavior of a range of different peptide antigen conjugates of Formula V at 0.1 mg/mL or 0.5 mg/mL in PBS at a pH of 7.4 was assessed by dynamic light scattering. […] Turbidity was determined by measuring the absorbance of the solution at 490 nm. […] (A) The impact of net charge on the hydrodynamic behavior of a range of different peptide antigen conjugates of Formula V suspended at 0.1 mg/mL or 0.5 mg/mL in PBS at a pH of 7.4 was assessed by dynamic light scattering. […] The hydrodynamic behavior of a range of different peptide antigen conjugates suspended at 0.1 mg/mL in PBS at a pH of 7.4 was assessed by dynamic light scattering. […] Particle size was assessed by dynamic light scattering with the peptide antigen conjugate suspended at 0.5 mg/mL in PBS at a pH of 7.4. […] Solubility can be determined by visual inspection, by turbidity measurements or by dynamic light scattering.

Compound: CCCCNc1nc(N)c2nc(O)n(Cc3ccc(C(=O)NCC(=O)NCCCn4nnc5c4-c4ccccc4N(C(=O)CCC(=O)NCCCCC(NC(=O)CNC(=O)CCC(=O)N4Cc6ccccc6/C=C\c6ccccc64)C(=O)NCC(=O)NC(Cc4c[nH]c6ccccc46)C(=O)NC(Cc4c[nH]c6ccccc46)C(=O)NC(Cc4c[nH]c6ccccc46)C(=O)NC(Cc4c[nH]c6ccccc46)C(=O)NC(Cc4c[nH]c6ccccc46)C(N)=O)Cc4ccccc4-5)cc3)c2n1 (centres unmarked) [Compound 30] ({X1-Suc}-GK([Suc-X2])GWWWWW-NH2; configuration not given here)
- T cell responses in vivo (in words) (T cells): highest magnitude responses

Compound: CCCCc1nc2c(N)nc3ccccc3c2n1CCCCNC(=O)CCC(NC(=O)C(Cc1c[nH]c2ccccc12)NC(=O)C(CCC(=O)NCCCCn1c(CCCC)nc2c(N)nc3ccccc3c21)NC(=O)C(Cc1c[nH]c2ccccc12)NC(=O)C(CCC(=O)NCCCCn1c(CCCC)nc2c(N)nc3ccccc3c21)NC(=O)CCC(=O)N1Cc2ccccc2-c2c(nnn2CCCCC(=O)NC(CCCCN)C(=O)NC(CCCCN)C(=O)NC(CCCCN)C(=O)NC(CCCCN)C(=O)NC(CCCCN)C(=O)NC(CCCCN)C(=O)NC(CCCCN)C(=O)NC(CCCCN)C(=O)NC(CCCCN)C(=O)NC(CCCCN)C(N)=O)-c2ccccc21)C(N)=O (centres unmarked) [Compound 42]
- T cell responses in vivo (in words) (T cells): high magnitude T cell immunity

Compound: Adpgk: native LP neoantigen from MC38 that assembles into particles; minimal epitope Ala-Ser-Met-Thr-Asn-Met-Glu-Leu-Met (ASMTNMELM)
- CD8 T cell responses (in words) (CD8 T cells): significant increase in CD8 T cell responses over background; also recorded: immunogenic

Compound: Compound 16 (GGE(2B)GGE(2B)GGE(2B)GGE(2B)GGE(2B); also: DBCO)
- particle formation and stability (in words) [1]: formed stable nanoparticle micelles
- T cell responses in vivo (in words) (T cells): high magnitude T cell responses

Compound: Compound 20 (KGWGWGKGWGWGKGWGWGKGWGWGKGWGWG; not fully specified (residues 1, 7, 13, 19, 25))
- particle formation and stability (in words) [1]: formed stable nanoparticle micelles
- T cell responses in vivo (in words) (T cells): high magnitude T cell responses

Compound: Cpne1: native LP neoantigen derived from the MC38 tumor cell line, water soluble; minimal epitope Ser-Ser-Pro-Tyr-Ser-Leu-His-Tyr-Leu (SSPYSLHYL)
- CD8 T cell responses (in words) (CD8 T cells): no CD8 T cell responses
